Assay results taken from patent publication EP1210336B1, “SUBSTITUTED BENZIMIDAZOLES AS NON-NUCLEOSIDE INHIBITORS OF REVERSE TRANSCRIPTASE” (THE UNITED STATES OF AMERICA, as represented by the …, priority 1999, dated 2001).
Where two headings read alike, the source gives them in different places.

What was measured:
NL4-3 (WT) = assay: Cytopathic cell killing assay, cross-resistance profile, infected MT-4 cells; format: cell-based, HIV-1
Outline: (§1)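 Cells seeded at 5 x 10^3 per well and infected with pre-titered HIV at MOI giving full killing by day 6 (e.g., 0.01-0.05). Compounds tested in triplicate serial half-log dilutions. Viability measured after six days at 37°C by XTT formazan at 450 nm; TI50 = fold-difference between EC50 and IC50.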

HIV-1 variant K103N = assay: as above; format: cell-based; settings: for EC50: isolate K103N
Outline: as §1

HIV-1 variant L74V = assay: as above; format: cell-based
Outline: as §1

HIV-1 variant L100I = assay: as above; format: cell-based
Outline: as §1

HIV-1 variant Y181C = assay: as above; format: cell-based; settings: isolate Y181C
Outline: as §1

HIV-1 isolate 4xAZT = assay: as above; format: cell-based
Outline: as §1

HIV-1 variant V179D = assay: as above; format: cell-based; settings: isolate V179D
Outline: as §1

HIV-1 variant V108I = assay: as above; format: cell-based
Outline: as §1

[1] = test system: HIV-1 isolate 4xAZT/Y181C; assay: as above; format: cell-based
Outline: as §1

HIV-1 variant V106A = assay: as above; format: cell-based
Outline: as §1

HIV-1 variant Y188C = assay: as above; format: cell-based
Outline: as §1

HIV-1 variant A98G = assay: as above; format: cell-based
Outline: as §1

HIV-1 variant K101E = assay: as above; format: cell-based
Outline: as §1

HIV-1 WT RT = biological target: T1, HIV-1 WT RT (Human immunodeficiency virus type 1 group M subtype B, UniProt P03366); assay: biochemical; settings: for inhibition at 10 µM: read-out: %inhibn (10µM)
T1 construct: purified RT protein (0.015 mg/mL) was incubated in a 100 µL reaction mixture

[2] = Human immunodeficiency virus 1, NL43, MT4, Table 4, isolate NL4-3 (WT)
[3] = Human immunodeficiency virus 1, NL43, MT4, Table 8, isolate N1.43
[4] = Human immunodeficiency virus 1, NL43, MT4, Table 9, isolate NL4.3
[5] = Human immunodeficiency virus 1, MT4, Table 4
[6] = Human immunodeficiency virus 1, MT4, Table 8
[7] = Human immunodeficiency virus 1, MT4, Table 9
[8] = Human immunodeficiency virus 1, MT4, Table 4, isolate L74V
[9] = Human immunodeficiency virus 1, MT4, Table 8, isolate 1.74V
[10] = Human immunodeficiency virus 1, MT4, Table 9, isolate 1.74 V
[11] = Human immunodeficiency virus 1, MT4, Table 4, isolate L1001
[12] = Human immunodeficiency virus 1, MT4, Table 8, isolate 1.1001
[13] = Human immunodeficiency virus 1, MT4, Table 9, isolate L1001
[14] = Human immunodeficiency virus 1, MT4, Table 4, isolate 4xAZT
[15] = Human immunodeficiency virus 1, MT4, Table 8, isolate 4XAZT
[16] = Human immunodeficiency virus 1, MT4, Table 4, isolate V108I
[17] = Human immunodeficiency virus 1, MT4, Table 8, isolate V1081
[18] = Human immunodeficiency virus 1, MT4, Table 9, isolate V1081
[19] = Human immunodeficiency virus 1, MT4, Table 4, isolate 4xAZT/Y181C
[20] = Human immunodeficiency virus 1, MT4, Table 8, isolate 4XAZT /Y181C
[21] = Human immunodeficiency virus 1, MT4, Table 4, isolate V106A
[22] = Human immunodeficiency virus 1, MT4, Table 8, isolate V 106A
[23] = Human immunodeficiency virus 1, MT4, Table 9, isolate V106A
[24] = Human immunodeficiency virus 1, MT4, Table 4, isolate Y188C
[25] = Human immunodeficiency virus 1, MT4, Table 8, isolate Y 188C
[26] = Human immunodeficiency virus 1, MT4, Table 9, isolate Y188C
[27] = Human immunodeficiency virus 1, MT4, Table 4, isolate A98G
[28] = Human immunodeficiency virus 1, MT4, Table 8, isolate A9SG
[29] = Human immunodeficiency virus 1, MT4, Table 9, isolate A98G
[30] = Human immunodeficiency virus 1, MT4, Table 4, isolate K101E
[31] = Human immunodeficiency virus 1, MT4, Table 8, isolate K101E
[32] = Human immunodeficiency virus 1, MT4, Table 9, isolate KIOIE
[33] = Table 1, WT RT, 10 µM drug concentration
[34] = Human immunodeficiency virus 1, MT4, Table 10 (values in µM)

Question: Which results are given for `Fc1cccc(F)c1C1SCc2nc3ccccc3n21` (stereo not drawn) [TZB, 1-(2,6-difluorophenyl)-1H,3H-thiazolo[3,4-a]benzimidazole, reference compound]?
Answer: EC50 (NL4-3 (WT); [2]): 1.7 µM; EC50 (NL4-3 (WT); [3]): 10 µM; EC50 (NL4-3 (WT); [4]): 1 µM; EC50 (HIV-1 variant K103N; [5]): > 20 µM; EC50 (HIV-1 variant K103N; [6]): > 10 µM; EC50 (HIV-1 variant K103N; [7]): > 20 µM; activity against the K103N mutation / isolate (HIV-1 variant K103N; result in words, cytopathic cell killing assay): ineffective; EC50 (HIV-1 variant L74V; [8]): 700 nM; EC50 (HIV-1 variant L74V; [9]): 800 nM; EC50 (HIV-1 variant L74V; [10]): 500 nM; EC50 (HIV-1 variant L100I; [11]): 12.2 µM; EC50 (HIV-1 variant L100I; [12]): 6.6 µM; EC50 (HIV-1 variant L100I; [13]): 6.6 µM; EC50 (HIV-1 variant Y181C; [5]): 16.3 µM; EC50 (HIV-1 variant Y181C; [7]): > 10 µM; EC50 (HIV-1 isolate 4xAZT; [14]): 1500 nM; EC50 (HIV-1 isolate 4xAZT; [15]): 1100 nM; EC50 (HIV-1 variant V179D; [5]): 3100 nM; EC50 (HIV-1 variant V179D; [6]): > 10000 nM; EC50 (HIV-1 variant V179D; [7]): 3900 nM; EC50 (HIV-1 variant V108I; [16]): 9.7 µM; EC50 (HIV-1 variant V108I; [17]): 3.9 µM; EC50 (HIV-1 variant V108I; [18]): 5.7 µM; EC50 [1, 19]: 14500 nM; EC50 [1, 20]: > 10000 nM; EC50 ([1]; Human immunodeficiency virus 1, MT4, Table 9, isolate 4XAZT /Y181C): > 10000 nM; EC50 (HIV-1 variant V106A; [21]): > 20000 nM; EC50 (HIV-1 variant V106A; [22]): 5700 nM; EC50 (HIV-1 variant V106A; [23]): > 10000 nM; EC50 (HIV-1 variant Y188C; [24]): > 20 µM; EC50 (HIV-1 variant Y188C; [25]): > 20 µM; EC50 (HIV-1 variant Y188C; [26]): > 20 µM; EC50 (HIV-1 variant A98G; [27]): 17700 nM; EC50 (HIV-1 variant A98G; [28]): 10000 nM; EC50 (HIV-1 variant A98G; [29]): 10000 nM; EC50 (HIV-1 variant K101E; [30]): > 20 µM; EC50 (HIV-1 variant K101E; [31]): > 10 µM; EC50 (HIV-1 variant K101E; [32]): > 10 µM; IC50 (HIV-1 WT RT): 500 nM; inhibition at 10 µM (HIV-1 WT RT; [33]): 84%

Question: For `Cc1cccc2c1nc(-c1c(F)cccc1F)n2Cc1c(F)cccc1F` [compound 33, 1-(2,6-difluorobenzyl)-2-(2,6-difluorophenyl)-4-methylbenzimidazole], which EC50 (NL4-3 (WT); [2]) is on record?
Answer: 0.5 µM

Question: And the EC50 (NL4-3 (WT); [3])?
Answer: 0.5 µM

Question: What about the EC50 (NL4-3 (WT); [4]) of the same molecule?
Answer: 0.5 µM

Question: And the EC50 (NL4-3 (WT); Human immunodeficiency virus 1, NL43, MT4, Table 10 (values in µM), isolate NL4-3 (WT))?
Answer: 0.5 µM

Question: And the “-fold better in the inhibition of the various viral isolates than the des-methyl analog 26” value (NL4-3 (WT); various viral isolates of Table 4)?
Answer: 3- to 4 fold

Question: What about the EC50 (HIV-1 variant K103N; [5]) of the same molecule?
Answer: 8.1 µM

Question: And the EC50 (HIV-1 variant K103N; [6])?
Answer: > 20 µM

Question: And the EC50 (HIV-1 variant K103N; [7])?
Answer: > 20 µM

Question: And the EC50 (HIV-1 variant K103N; [34])?
Answer: 8.1 µM

Question: What about the EC50 (HIV-1 variant L74V; [8]) of the same molecule?
Answer: 100 nM

Question: And the EC50 (HIV-1 variant L74V; [9])?
Answer: 300 nM

Question: What about the EC50 (HIV-1 variant L74V; [10]) of the same molecule?
Answer: 300 nM

Question: And the EC50 (HIV-1 variant L100I; [11])?
Answer: 0.3 µM

Question: And the EC50 (HIV-1 variant L100I; [12])?
Answer: 0.3 µM

Question: And the EC50 (HIV-1 variant L100I; [13])?
Answer: 0.3 µM

Question: And the EC50 (HIV-1 variant L100I; Human immunodeficiency virus 1, MT4, Table 10 (values in µM), isolate L1001)?
Answer: 0.3 µM

Question: What about the EC50 (HIV-1 variant Y181C; [5]) of the same molecule?
Answer: 6 µM

Question: What about the EC50 (HIV-1 variant Y181C; [7]) of the same molecule?
Answer: 4.3 µM

Question: What about the EC50 (HIV-1 variant Y181C; [34]) of the same molecule?
Answer: 6 µM

Question: What about the EC50 (HIV-1 isolate 4xAZT; [14]) of the same molecule?
Answer: 100 nM

Question: And the EC50 (HIV-1 isolate 4xAZT; [15])?
Answer: 100 nM

Question: And the EC50 (HIV-1 isolate 4xAZT; Human immunodeficiency virus 1, MT4, Table 9, isolate 4XAZT)?
Answer: 100 nM

Question: What about the EC50 (HIV-1 variant V179D; [5]) of the same molecule?
Answer: 500 nM

Question: And the EC50 (HIV-1 variant V179D; [6])?
Answer: 700 nM

Question: And the EC50 (HIV-1 variant V179D; [7])?
Answer: 700 nM

Question: And the EC50 (HIV-1 variant V108I; [16])?
Answer: 2.8 µM

Question: What about the EC50 (HIV-1 variant V108I; [17]) of the same molecule?
Answer: 2.8 µM

Question: And the EC50 (HIV-1 variant V108I; [18])?
Answer: 2.8 µM

Question: What about the EC50 (HIV-1 variant V108I; Human immunodeficiency virus 1, MT4, Table 10 (values in µM), isolate V108l) of the same molecule?
Answer: 2.8 µM

Question: And the EC50 [1, 19]?
Answer: 3500 nM

Question: What about the EC50 [1, 20] of the same molecule?
Answer: 3500 nM

Question: And the EC50 (HIV-1 variant V106A; [21])?
Answer: 20000 nM

Question: And the EC50 (HIV-1 variant V106A; [22])?
Answer: > 10000 nM

Question: And the EC50 (HIV-1 variant V106A; [23])?
Answer: > 10000 nM

Question: And the EC50 (HIV-1 variant Y188C; [24])?
Answer: 2.3 µM

Question: And the EC50 (HIV-1 variant Y188C; [25])?
Answer: 3 µM

Question: And the EC50 (HIV-1 variant Y188C; [26])?
Answer: 3 µM

Question: And the EC50 (HIV-1 variant Y188C; Human immunodeficiency virus 1, MT4, Table 10 (values in µM), isolate Y188C)?
Answer: 2.3 µM

Question: And the EC50 (HIV-1 variant A98G; [27])?
Answer: 1400 nM

Question: What about the EC50 (HIV-1 variant A98G; [28]) of the same molecule?
Answer: 27000 nM

Question: And the EC50 (HIV-1 variant A98G; [29])?
Answer: 2700 nM

Question: And the EC50 (HIV-1 variant K101E; [30])?
Answer: 16.7 µM

Question: What about the EC50 (HIV-1 variant K101E; [31]) of the same molecule?
Answer: > 10 µM

Question: What about the EC50 (HIV-1 variant K101E; [32]) of the same molecule?
Answer: > 10 µM

Question: And the EC50 (HIV-1 variant K101E; Human immunodeficiency virus 1, MT4, Table 10 (values in µM), isolate K101E)?
Answer: 16.7 µM

Question: What about the IC50 (HIV-1 WT RT; HIV-1 WT RT, read-out: IC50) of the same molecule?
Answer: 200 nM

Question: And the inhibition at 10 µM (HIV-1 WT RT; [33])?
Answer: 92%

Question: What about the IC50 (HIV-1 WT RT; Table 1, quantity of drug required to reduce WT RT enzyme activity by 50%, read-out: IC50) of the same molecule?
Answer: 200 nM

Question: What about the “%inhibn (10µM)” value (HIV-1 WT RT; Table 2, WT RT, 10 µM drug concentration) of the same molecule?
Answer: 92%

Question: And the IC50 (HIV-1 WT RT; Table 7, HIV-1 WT RT, read-out: IC50)?
Answer: 200 nM

Question: What about the inhibition at 1 µM (HIV-1 WT RT; Table 7, WT HIV-1 RT, 1 µM drug, read-out: %inhibn (1µM)) of the same molecule?
Answer: 71%

Question: What about the IC50 (HIV-1 WT RT; Table 11, WT RT, read-out: IC50) of the same molecule?
Answer: 200 nM

Question: What about the IC50 (HIV-1 WT RT; WT RT, read-out: IC50) of the same molecule?
Answer: 200 nM
